Experiments:
[1] = test system: E. coli K12; assay: microbe, parasite or virus in culture; format: cell-based; conditions: Escherichia coli, K12, 2 h, read-out: toxic dose (concentration of compound that decreased growth by half)
Procedure: A: The olefin compounds were added to different concentrations as indicated to an E. coli K12 culture at an OD600=0.2. OD was monitored after 2 hour at 37° C. The bars represent standard deviation between duplicates B: A survival test in presence of 1-octene was performed. Six different dilutions of a culture (10 cells to 10^7 cells, left to right) of E. coli K12 were spotted in triplicate on an agar plate. […] Plates were incubated at room temperature for 2 days and then opened to allow evaporation of the olefin.
In this example, toxicity of olefin compounds was evaluated. A toxic dose was defined as the concentration of compound that decreased growth by half.

[2] = test system: E. coli K12; assay: Survival test on agar plate with 1-octene overlay; format: cell-based; conditions: 2 days at room temperature, FIG. 1B
Procedure: FIG. 1. Impact of styrene, 1-hexene and 1-octene on cell growth. A: The olefin compounds were added to different concentrations as indicated to an E. coli K12 culture at an OD600=0.2. OD was monitored after 2 hour at 37° C. The bars represent standard deviation between duplicates B: A survival test in presence of 1-octene was performed. Six different dilutions of a culture (10 cells to 10^7 cells, left to right) of E. coli K12 were spotted in triplicate on an agar plate. An overlay of 1-octene was added over the cells (controls had no overlay). Plates were incubated at room temperature for 2 days and then opened to allow evaporation of the olefin.
For agar plate based assays, cells were first streaked overnight and few colonies were used to inoculate a preculture of 6 mL of LB-Cm with glucose (2 g/L) and arabinose (5 mM). At OD60=1 at 37° C., the cultures were used to prepare a dilution series. Dilution 0 (D0) corresponds to the OD600, =1, and contains ˜10^9 cells/mL. Dilution 1 (D1) is a 10-fold dilution of D0, dilution 2 (D2) a 10-fold dilution of D1 up to dilution 5 (D5), which contains ˜10^4 cells/mL. 10 μL of each dilution was spotted in triplicate on LB-agar plates (single well plates, Thermo Scientific, Waltham, Mass.) containing 30 mL of LB-agar, Cm (30 mg/L), glucose (2 g/L) and arabinose (5 mM). […]

With `C=CCCCCCC` [1-octene] the IC50 [1] was > 1000 µg/mL and the “toxicity relative to the other olefins tested” value [2] was “less toxic”.
